Where two headings read alike, the source gives them in different places. Blank lines part the entries; values can stand above or below the molecule they belong to.
Tests used:
[1] = Human liver microsome (HLM) assay; type: in vitro ADME; details: human liver microsomes, 5 μM test compound
Procedure: Human Liver Microsome (HLM) Assay Compound metabolism in human liver microsomes was measured by LC-MS analytical assay procedures as follows. […] (3 tubes per test compound-triplicate). […] The samples were then transferred to separate polypropylene microcentrifuge tubes and centrifuged at 14000 g for 10 min. (Fisher Micro […] M0017580). For each replicate (#1-3) at each timepoint (0 and 2 h), an aliquot sample of each test compound was combined into a single HPLC vial insert (6 total samples) for LC-MS analysis, which is described below.

[2] = target: unphosphorylated VEGF-R2Δ50 (FLVK) (Homo sapiens, UniProt P35968, DEL940-989/E990V); assay: VEGF-R2 coupled spectrophotometric assay, unphosphorylated VEGF-R2Δ50 (FLVK); details: for Ki: FLVK Ki, Table 1; for inhibition at 0.05 µM: read-out: FLVK % inhibition
[3] = Determination of inhibitor concentration in mouse plasma after intraperitoneal and oral dosing; type: in vivo
Procedure: Blood collection was via ocular bleed at 0.5, 1, 4 hr with the final time point, 7 hour, via intracardiac puncture. The blood was centrifuged to collect plasma, which was then stored at −80° C. until analysis. Samples were prepared for analysis using an internal standard and sodium hydroxide. After vortexing, ethyl acetate was added and mixed for 15-20 minutes at ambient temperature. […] The samples were then analyzed via HPLC or LC-MS. Compound levels were quantitated by generating a standard curve of known compound concentration in mouse plasma.

[4] = test system: human umbilical vein endothelial cells (HUVEC); assay: HUVEC proliferation assay (VEGF-stimulated, MTT); type: cell-based; details: Homo sapiens, HUVEC
[5] = IP, 25 mg/kg, vehicle PEG400:H2O pH 2.3 30:70
[6] = PO, 50 mg/kg, vehicle PEG400:H2O pH 2.3 30:70
[7] = female, IP, 25 mg/kg, vehicle PEG400:H2O pH 2.3 30:70
[8] = female, IP, 25 mg/kg, vehicle PEG400:H2O pH 2.3 30:70, read-out: Cmin (7 hr conc.)
[9] = female, PO, 50 mg/kg, vehicle PEG400:H2O pH 2.3 30:70, read-out: Cmin (7 hr conc.)
[10] = female, PO, 25 mg/kg, vehicle PEG400:H2O pH 2.3 30:70
[11] = female, PO, 25 mg/kg, vehicle PEG400:H2O pH 2.3 30:70, read-out: Cmin (7 hr conc.)
[12] = PO, 25 mg/kg, vehicle PEG400:H2O pH 2.3 30:70
[13] = + albumin, read-out: HUVEC + albumin IC50
[14] = IP, 25 mg/kg, vehicle PEG400:H2O pH 2.3 60:40
[15] = PO, 50 mg/kg, vehicle PEG400:H2O pH 2.3 60:40
[16] = female, IP, 25 mg/kg, vehicle PEG400:H2O pH 2.3 60:40, read-out: Cmin (7 hr conc.)
[17] = female, PO, 50 mg/kg, vehicle PEG400:H2O pH 2.3 60:40, read-out: Cmin (7 hr conc.)

Sequence of unphosphorylated VEGF-R2Δ50 (FLVK) (P35968 with tags, fused parts or gaps DEL940-989/E990V limits assumed): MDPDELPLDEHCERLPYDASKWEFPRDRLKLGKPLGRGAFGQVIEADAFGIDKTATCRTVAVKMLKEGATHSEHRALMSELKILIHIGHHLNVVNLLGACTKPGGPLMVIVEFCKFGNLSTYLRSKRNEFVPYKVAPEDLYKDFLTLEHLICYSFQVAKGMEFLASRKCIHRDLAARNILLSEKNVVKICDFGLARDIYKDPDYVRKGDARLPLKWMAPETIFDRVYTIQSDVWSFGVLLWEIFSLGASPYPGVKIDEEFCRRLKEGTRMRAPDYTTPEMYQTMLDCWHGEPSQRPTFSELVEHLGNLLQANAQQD

SMILES: O=C(N[C@@H]1C[C@H]1c1ccccc1)c1ccccc1Sc1ccc2c(/C=C/c3ccccn3)n[nH]c2c1 (racemic) [Example 34]
% remain (HLM, 2 h) [1]: 28%

SMILES: O=C(Nc1cccc(Oc2ccc3c(/C=C/c4ccccc4)n[nH]c3c2)c1)c1ccccc1 [Example 4(a), N-[3-(3-Styryl-1H-indazol-6-yloxy)-phenyl]-benzamide]
% remain (HLM, 2 h) [1]: 35%

SMILES: CC(=O)Nc1cccc(Sc2ccc3c(/C=C/c4ccccc4)n[nH]c3c2)c1 [Example 20(a), 6-(3-Acetamido-phenylsulfanyl)-3-styryl-1H-indazole]
% remain (HLM, 2 h) [1]: 52%

SMILES: C=C(c1cccc(N)c1)c1ccc2c(/C=C/c3ccccc3)n[nH]c2c1 [Example 21, 6-(1-(3-Aminophenyl)-vinyl)-3-styryl-1H-indazole]
Ki [2]: 4.6 nM

SMILES: C=C(c1cccc(NC(=O)OCc2ccccc2)c1)c1ccc2c(/C=C/c3ccccc3)n[nH]c2c1 [Example 22(c)]
Ki [2]: 0.64 nM

SMILES: O=C(Nc1cccc(Oc2ccc3c(/C=C/c4ccccc4)n[nH]c3c2)c1)c1cccc2[nH]ccc12 [Example 30(d), 6-[3-(indol-4-ylcarboxamido)phenoxy]-3-E-stryrylindazole]
Ki [2]: 0.37 nM

SMILES: CCn1nc(C)cc1C(=O)Nc1cccc(Oc2ccc3c(/C=C/c4ccccc4)n[nH]c3c2)c1 [Example 30(e), 6-[3-((1-Ethyl-3-methyl-1H-pyrazol-5-yl)carboxamido)phenoxy]-3-E-stryrylindazole]
Ki [2]: 0.37 nM

SMILES: Cc1cc(C(=O)Nc2cccc(Oc3ccc4c(/C=C/c5ccccn5)n[nH]c4c3)c2)nn1C [Example 31(b), 6-[3-((1,5-Dimethyl-1H-pyrazol-3-yl)carboxamido)phenoxy]-3-E-[2-(pyridin-2-yl)ethenyl]-1H-indazole]
Ki [2]: < 0.1 nM
plasma half-life (T1/2) [3, 5]: 1.7 h
AUClast [3, 6]: 2071 ng·h/mL
plasma half-life (T1/2) [3, 6]: 1.0 h
AUC(0-t) [3, 7]: > 7040 ng·h/mL
concentration at 7 h [3, 8]: 177 ng/mL
concentration at 7 h [3, 9]: 15 ng/mL

SMILES: O=C(Nc1cccc(Oc2ccc3c(/C=C/c4c[nH]cn4)n[nH]c3c2)c1)c1ccccc1 [Example 32(a), 6-[3-Benzamidophenoxy]-3-E-[2-(1H-imidazol-4-yl)ethenyl]-1H-indazole]
Ki [2]: < 0.1 nM
AUClast [3, 6]: 4190 ng·h/mL
AUC(0-t) [3, 7]: > 20600 ng·h/mL
concentration at 7 h [3, 8]: 1270 ng/mL
AUC(0-t) [3, 10]: 490 ng·h/mL
concentration at 7 h [3, 11]: 18 ng/mL
concentration at 7 h [3, 9]: 40 ng/mL

SMILES: CCn1nc(C)cc1C(=O)Nc1cccc(Oc2ccc3c(/C=C/c4c[nH]cn4)n[nH]c3c2)c1 [Example 32(b), 6-[3-((1-Ethyl-3-methyl-1H-pyrazol-5-yl)carboxamido)phenoxy]-3-E-[2-(1H-imidazol-4-yl)ethenyl]-1H-indazole]
Ki [2]: 0.08 nM

SMILES: CCn1nc(C)cc1C(=O)Nc1cccc(Oc2ccc3c(/C=C/c4c[nH]c(C)n4)n[nH]c3c2)c1 [Example 32(c), 6-[3-((1-Ethyl-3-methyl-1H-pyrazol-5-yl)carboxamido)phenoxy]-3-E-[2-(2-methylimidazol-4-yl)ethenyl]-1H-indazole]
Ki [2]: 0.27 nM
AUClast [3, 12]: 388 ng·h/mL
Cmax [3, 12]: 161 ng/mL
plasma half-life (T1/2) [3, 12]: 2.4 h
concentration at 7 h [3, 11]: 10 ng/mL

% remain (HLM, 2 h) [1]: 8%
SMILES: O=C(NCc1ccco1)c1ccccc1Sc1ccc2c(/C=C/c3ccccn3)n[nH]c2c1 [Example 35(bb), 6-[2-((fur-2-yl)Methylcarbamoyl)phenylsulfanyl]-3-E-[2-(pyridin-2-yl)ethenyl]-1H-indazole]

% remain (HLM, 2 h) [1]: 15%
SMILES: O=C(NCc1ccccc1F)c1ccccc1Sc1ccc2c(/C=C/c3ccccn3)n[nH]c2c1 [Example 35(f)]

SMILES: O=C(NOCc1ccccc1)c1ccccc1Sc1ccc2c(/C=C/c3ccccn3)n[nH]c2c1 [Example 35(i), 6-[2-(Benzyloxycarbamoyl)phenylsulfanyl]-3-E-[2-(pyridin-2-yl)ethenyl]-1H-indazole]
IC50 [4, 13]: 4.7 nM
inhibition at 0.05 µM [2]: 100%

SMILES: NNC(=O)c1ccccc1Sc1ccc2c(/C=C/c3ccccn3)n[nH]c2c1 [Example 35(ii), 6-[2-(Aminocarbamoyl)phenylsulfanyl]-3-E-[2-(pyridin-2-yl)ethenyl]-1H-indazole]
inhibition at 0.05 µM [2]: 44%

SMILES: Nc1ccc(CNC(=O)c2ccccc2Sc2ccc3c(/C=C/c4ccccn4)n[nH]c3c2)cc1 [Example 35(l)]
inhibition at 0.05 µM [2]: 90%

SMILES: O=C(NNC(=O)c1ccccc1Sc1ccc2c(/C=C/c3ccccn3)n[nH]c2c1)c1cccs1 [Example 35(m), 6-[2-((Thien-2-ylhydrazido)carbonyl)phenylsulfanyl]-3-E-[2-(pyridin-2-yl)ethenyl]-1H-indazole]
Ki [2]: 0.04 nM
AUClast [3, 5]: 226 ng·h/mL
plasma half-life (T1/2) [3, 5]: 4.0 h
AUClast [3, 12]: 10 ng·h/mL
Cmax [3, 12]: 7 ng/mL
concentration at 7 h [3, 8]: 17 ng/mL
concentration at 7 h [3, 11]: 0 ng/mL

% remain (HLM, 2 h) [1]: 27%
SMILES: C=CCNC(=O)c1ccccc1Sc1ccc2c(/C=C/c3ccccn3)n[nH]c2c1 [Example 35(u), 6-[2-(Allylcarbamoyl)phenylsulfanyl]-3-E-[2-(pyridin-2-yl)ethenyl]-1H-indazole]

SMILES: CNC(=O)c1ccccc1Nc1ccc2c(/C=C/c3ccccn3)n[nH]c2c1 [Example 39(a), 6-[2-(Methylcarbamoyl)phenylamino]-3-E-[2-(pyridin-2-yl)ethenyl]-1H-indazole]
IC50 ([4]; read-out: HUVEC IC50): 1.4 nM
inhibition at 0.05 µM [2]: 53%
plasma half-life (T1/2) [3, 12]: 1.4 h
AUC(0-t) [3, 10]: > 14800 ng·h/mL
Cmax ([3]; female, PO, 25 mg/kg, vehicle PEG400:H2O pH 2.3 30:70, read-out: Cmax): > 4000 ng/mL
concentration at 7 h [3, 11]: 219 ng/mL

SMILES: O=C(Nc1cccc(C(=O)c2ccc3c(/C=C/c4ccccn4)n[nH]c3c2)c1)c1ccncc1 [Example 41(b), 6-[3-(Pyridin-4-ylcarboxamido)benzoyl]-3-E-[2-(pyridin-2-yl)ethenyl]-1H-indazole]
Ki [2]: 0.26 nM
plasma half-life (T1/2) [3, 14]: 4.7 h
AUClast [3, 15]: 759 ng·h/mL
plasma half-life (T1/2) [3, 15]: 1.1 h
AUC(0-t) ([3]; female, IP, 25 mg/kg, vehicle PEG400:H2O pH 2.3 60:40): > 5870 ng·h/mL
Cmax ([3]; female, IP, 25 mg/kg, vehicle PEG400:H2O pH 2.3 60:40, read-out: Cmax): > 1000 ng/mL
concentration at 7 h [3, 16]: 412 ng/mL
concentration at 7 h [3, 17]: 6 ng/mL

Ki [2]: 2.95 nM
SMILES: O=C(c1cccc(NC(=O)C2CC2)c1)c1ccc2c(/C=C/c3ccccn3)n[nH]c2c1 [Example 41(k), 6-[3-(Cyclopropylcarboxanido)benzoyl]-3-E-[2-(pyridin-2-yl)ethenyl]-1H-indazole]

SMILES: Cn1nc(C(C)(C)C)cc1C(=O)Nc1cccc(C(=O)c2ccc3c(/C=C/c4ccccn4)n[nH]c3c2)c1 [Example 41(n), 6-[3-((3-t-Butyl-1-methyl-1H-pyrazol-5-yl)carboxamido)benzoyl]-3-E-[2-(pyridin-2-yl)ethenyl]-1H-indazole]
Ki [2]: 0.2 nM
AUClast [3, 5]: 9408 ng·h/mL
Cmax [3, 5]: 1976 ng/mL
plasma half-life (T1/2) [3, 5]: 3.2 h
AUClast [3, 6]: 9066 ng·h/mL
Cmax [3, 6]: 2245 ng/mL
plasma half-life (T1/2) [3, 6]: 1.9 h
concentration at 7 h [3, 8]: 465 ng/mL
concentration at 7 h [3, 9]: 253 ng/mL

SMILES: CC(C)(C)c1ccc(C(=O)Nc2cccc(C(=O)c3ccc4c(/C=C/c5ccccn5)n[nH]c4c3)c2)cc1 [Example 41(s), 6-[3-(4-t-Butylbenzanido)benzoyl]-3-E-[2-(pyridin-2-yl)ethenyl]-1H-indazole]
Ki [2]: 0.23 nM

SMILES: COc1cc(C(=O)Nc2cccc(C(=O)c3ccc4c(/C=C/c5ccccn5)n[nH]c4c3)c2)cc(Cl)n1 [Example 41(u), 6-[3-((2-Chloro-6-methoxypyridin-4-yl)carboxanido)benzoyl]-3-E-[2-(pyridin-2-yl)ethenyl]-1H-indazole]
Ki [2]: 0.08 nM
AUClast [3, 12]: 875 ng·h/mL
Cmax [3, 12]: 224 ng/mL
plasma half-life (T1/2) [3, 12]: 5.6 h
concentration at 7 h [3, 11]: 51 ng/mL

SMILES: Cc1nc(/C=C/c2n[nH]c3cc(C(=O)c4cccc(NC(=O)c5ccccc5)c4)ccc23)cs1 [Example 42(c), 6-(3-Benzanidobenzoyl)-3-E-[2-(2-methylthiazol-4-yl)ethenyl]-1H-indazole]
IC50 [4, 13]: 1 to 3 nM
inhibition at 0.05 µM [2]: 95%

SMILES: O=C(Nc1cccc(C(=O)c2ccc3c(-c4nc5cccnc5[nH]4)n[nH]c3c2)c1)c1ccccc1 [Example 42(d), 6-(3-Benzaniidobenzoyl)-3-(3H-imidazo[4,5-b]pyridin-2-yl)-1H-indazole]
Ki [2]: 1.7 nM
AUClast [3, 14]: 1774 ng·h/mL
plasma half-life (T1/2) [3, 14]: 1.4 h
AUClast [3, 15]: 46 ng·h/mL
plasma half-life (T1/2) [3, 15]: BLQ
concentration at 7 h [3, 16]: 31 ng/mL
concentration at 7 h [3, 17]: 18 ng/mL

From patent publication US6534524B1, “Indazole compounds and pharmaceutical compositions for inhibiting protein kinases, and methods for their use” (Agouron Pharmaceuticals, Inc., priority 1999, dated 2003)
